Test results: patent US10881614B2, “Nicotinamide compositions and the therapeutic use thereof” (APeT Holding B.V., priority 2011, dated 2021)

Experiments:
[1] = system: patients with epilepsy, behavioral and nutritional abnormalities; experiment: Clinical observations under oral nicotinamide therapy; type: in vivo, human
[2] = system: subjects suspected to suffer from tryptophan malabsorption; conditions: 20 mg/kg/day in six doses, three subjects; cited from earlier work

## NC(=O)c1cccnc1 [nicotinamide, pyridine-3-carboxamide]
[1]; nicotinamide therapy
  indican in plasma and urine: normalization
[1]; oral nicotinamide
  behavioral, neurological and psychiatric abnormalities: Remarkable improvement up to normalization
  intestinal tryptophan absorption: stimulates intestinal tryptophan absorption
[1]; patients with epilepsy, behavioral and nutritional abnormalities hardly improved by antiepileptic, antidepressant and other drugs
  clinical picture under nicotinamide therapy: normalized in one or two months
[2]
  effect on behavioral and psychiatric illnesses: beneficial effect
